From ChEMBL document CHEMBL3804791, “Comparison of small molecules and oligonucleotides that target a toxic, non-coding RNA” (Bioorg Med Chem Lett, 2016)
pIC50: −log10 of the molar value. Activity calls are given as the source filed them. The rule behind the calls is not given here.

Tests used:
C2C12 [1] = experiment: Effect on BIN1 splicing patterns in mouse C2C12 cells at 0.1 to 10 uM by RT-qPCR method; assay type: ADME, cell-based; details: c2c12, 10 µM
C2C12 [2] = experiment: Binding affinity to r(CCUG)300 RNA (unknown origin) in mouse C2C12 cells transfected with BIN1 assessed as rescue of BIN1 splicing defect at 10 uM after 72 hrs by PCR analysis; assay type: cell-based
C2C12 [3] = experiment: Effect on r(CCUG)300 levels in mouse C2C12 cells at 10 uM by RT-qPCR method; assay type: functional, cell-based
[4] = Binding affinity to 5-biotin-r(CCUG)12 RNA (unknown origin) assessed as inhibition of r(CCUG)12/His6-tagged MBNL1 complex formation preincubated for 15 mins followed by addition of His6-tagged MBNL1 by TR-FRET assay
[5] = Binding affinity to 5-biotin-r(CCUG)12 RNA (unknown origin) assessed as disruption of 5-biotin-r(CCUG)12/His6-tagged MBNL1 complex incubated for 15 mins by TR-FRET assay
C2C12 [6] = experiment: Effect on BIN1 splicing patterns in mouse C2C12 cells at 1 to 20 uM by RT-qPCR method; assay type: ADME, cell-based; details: c2c12, 20 µM
[7] = Binding affinity to r(CCUG)300 RNA (unknown origin) in mouse C2C12 cells transfected with BIN1 assessed as rescue of BIN1 splicing defect after 72 hrs by PCR analysis; assay type: cell-based
C2C12 [8] = experiment: Binding affinity to r(CCUG)300 RNA (unknown origin) in mouse C2C12 cells transfected with BIN1 splicing mini gene assessed as rescue of BIN1 splicing defect at 100 nM after 72 hrs by PCR analysis; assay type: cell-based

| Compound | pIC50 [4] | pIC50 [5] | Activity (C2C12 [1]) | Activity (C2C12 [2]) [%] | Activity (C2C12 [3]) | further results |
| --- | --- | --- | --- | --- | --- | --- |
| CCCN(CC(=O)N(CCC)CC(=O)N(CCC)CC(=O)N(CCC)CC(=O)N(CCCn1cc(CCCC(=O)NC[C@H]2O[C@H](O[C@@H]3[C@@H](O)[C@H](O[C@@H]4O[C@@H](CO)[C@H](O)[C@@H](N)[C@@H]4O)[C@@H](N)C[C@H]3N)[C@H](O)[C@@H](O)[C@@H]2O)nn1)CC(N)=O)C(=O)CNCCCn1cc(CCCC(=O)NC[C@@H]2O[C@@H](O[C@@H]3[C@@H](O)[C@H](O[C@@H]4O[C@@H](CO)[C@H](O)[C@@H](N)[C@@H]4O)[C@@H](N)C[C@H]3N)[C@@H](O)[C@H](O)[C@H]2O)nn1 | – | – | Non-toxic | 60 | inactive | – |
| C#CCCCC(=O)NC[C@@H]1O[C@@H](O[C@H]2[C@H](O)[C@@H](O[C@@H]3O[C@@H](CO)[C@H](O)[C@@H](N)[C@@H]3O)[C@H](N)C[C@@H]2N)[C@@H](O)[C@H](O)[C@H]1O | – | – | – | 15 | inactive | Activity (C2C12 [6]): Non-toxic |
| C#CCCCC(=O)NC[C@H]1O[C@H](O[C@H]2[C@H](O)[C@@H](O[C@H]3O[C@H](CN=[N+]=[N-])[C@@H](O)[C@H](N)[C@H]3O)[C@H](N)C[C@@H]2N)[C@H](O)[C@@H](O)[C@@H]1O | – | – | – | – | inactive | – |
| C#CNC(=O)CC(=O)NC[C@H]1O[C@H](O[C@@H]2[C@@H](O)[C@H](O[C@@H]3O[C@@H](CN=[N+]=[N-])[C@H](O)[C@@H](N)[C@@H]3O)[C@@H](N)C[C@H]2N)[C@H](O)[C@@H](O)[C@@H]1O (stereo in doubt) | – | – | Non-toxic | – | – | pIC50 [7]: 7.10; Activity (C2C12 [8]): 50% |

The next lines start with results.

| pIC50 [4] | pIC50 [5] | Compound | Activity (C2C12 [1]) | Activity (C2C12 [2]) [%] | Activity (C2C12 [3]) | further results |
| --- | --- | --- | --- | --- | --- | --- |
| 6.15 | 6.08 | Nc1ccn([C@@H]2C[C@@H](OP(=O)(O)OC[C@H]3O[C@@H](n4cnc5c(N)ncnc54)C[C@@H]3OP(=O)(O)OC[C@H]3O[C@@H](n4cnc5c(=O)[nH]c(N)nc54)C[C@@H]3OP(=O)(O)OC[C@H]3O[C@@H](n4cnc5c(=O)[nH]c(N)nc54)C[C@@H]3OP(=O)(O)OC[C@@H]3O[C@H](n4ccc(N)nc4=O)C[C@H]3OP(=O)(O)OC[C@@H]3O[C@H](n4cnc5c(N)ncnc54)C[C@H]3OP(=O)(O)OC[C@@H]3O[C@H](n4cnc5c(=O)[nH]c(N)nc54)C[C@H]3OP(=O)(O)OC[C@H]3O[C@@H](n4cnc5c(=O)[nH]c(N)nc54)C[C@@H]3O)[C@H](COP(=O)(O)O)O2)c(=O)n1 | – | – | – | – |
| 6.52 | 6.33 | Nc1ccn([C@@H]2C[C@@H](OP(=O)(O)OC[C@H]3O[C@@H](n4cnc5c(N)ncnc54)C[C@@H]3OP(=O)(O)OC[C@H]3O[C@@H](n4cnc5c(=O)[nH]c(N)nc54)C[C@@H]3OP(=O)(O)OC[C@@H]3O[C@H](n4cnc5c(=O)[nH]c(N)nc54)C[C@H]3OP(=O)(O)OC[C@@H]3O[C@H](n4ccc(N)nc4=O)C[C@H]3OP(=O)(O)OC[C@H]3O[C@@H](n4cnc5c(N)ncnc54)C[C@@H]3OP(=O)(O)OC[C@H]3O[C@@H](n4cnc5c(=O)[nH]c(N)nc54)C[C@@H]3OP(=O)(O)OC[C@H]3O[C@@H](n4cnc5c(=O)[nH]c(N)nc54)C[C@@H]3O)[C@H](COP(=O)(O)O[C@H]3C[C@H](n4cnc5c(=O)[nH]c(N)nc54)O[C@@H]3COP(=O)(O)O[C@@H]3C[C@@H](n4cnc5c(=O)[nH]c(N)nc54)O[C@H]3COP(=O)(O)O[C@@H]3C[C@@H](n4cnc5c(N)ncnc54)O[C@H]3COP(=O)(O)O[C@H]3C[C@H](n4ccc(N)nc4=O)O[C@@H]3COP(=O)(O)O)O2)c(=O)n1 | – | – | – | – |
